Source: ChEMBL document CHEMBL1121966, “(2R*,3S*)-1-[125I]Iodo-2,3-bis(4-hydroxyphenyl)pentane ([125I]iodonorhexestrol) and (2R*,3S*)-1-[77Br]Bromo-2,3-bis(4-hydroxyphenyl)pentane ([77Br]bromonorhexestrol), two gamma-emitting estrogens that show receptor-mediated uptake by target tissues in vivo” (1982)

Experiment: Solvolytic stability of compound was measured relative to p-hydroxyphenethyl bromide
Type: functional, Rattus norvegicus

| SMILES | 1/krel |
| --- | --- |
| C[C@]12CC[C@@H]3c4ccc(O)cc4CC[C@H]3[C@@H]1C[C@@H](Br)[C@@H]2O | 1276 |
| C[C@]12CC[C@@H]3c4ccc(O)cc4CC[C@H]3[C@@H]1C[C@@H](CBr)C2O (some centres not stated) | 451 |
